The subject of data set [1] is Toxoplasma gondii. The experiment in a line: Antiparasitic activity against Toxoplasma gondii RH tachyzoites infected African green monkey Vero cells assessed as mortality treated 24 hr after parasite infection measured after 24 hr by Giemsa staining based microscopic analysis. Format: functional. As to conditions: read-out: LD50 (the source's name).
Data set [2] in a line: Cytotoxicity against Chlorocebus aethiops (African green monkey) Vero cells infected with Toxoplasma gondii RH tachyzoites assessed as cell death and morphological alterations after 24 hr by microscopic analysis. It is filed as cell-based. As to conditions: chlorocebus sabaeus, read-out: LD50.
Data set [3] has as its system Vero. Description: Cytotoxicity against Chlorocebus aethiops (African green monkey) Vero cells infected with Toxoplasma gondii RH tachyzoites assessed as cell death and morphological alterations at 0.01 mM after 24 hr by microscopic analysis. Format: cell-based. Particulars: chlorocebus sabaeus, 10 µM.
Data set [4] relates to Toxoplasma gondii. The experiment in a line: Antiparasitic activity against Toxoplasma gondii RH tachyzoites infected African green monkey Vero cells assessed as reduction in number of intracellular parasites at 0.01 mM treated 24 hr after parasite infection measured after 24 hr by Giemsa staining based microscopic analysis. Format: functional.
Data set [5] deals with Vero. Description: Cytotoxicity against Chlorocebus aethiops (African green monkey) Vero cells infected with Toxoplasma gondii RH tachyzoites assessed as cell death and morphological alterations at 0.5 mM after 24 hr by microscopic analysis. Particulars: chlorocebus sabaeus, 500 µM. It is filed as cell-based.
The subject of data set [6] is Toxoplasma gondii. Description: Antiparasitic activity against Toxoplasma gondii RH tachyzoites infected African green monkey Vero cells assessed as reduction in number of intracellular parasites at 0.1 mM treated 24 hr after parasite infection measured after 24 hr by Giemsa staining based microscopic analysis. It is filed as functional, organism-based.
In data set [7] the test system is Vero. The experiment in a line: Cytotoxicity against Chlorocebus aethiops (African green monkey) Vero cells infected with Toxoplasma gondii RH tachyzoites assessed as cell death and morphological alterations at 1 mM after 24 hr by microscopic analysis. Format: cell-based. As to conditions: chlorocebus sabaeus, 1000 µM.
For data set [8], the system named is Toxoplasma gondii. Description: Antiparasitic activity against Toxoplasma gondii RH tachyzoites infected African green monkey Vero cells assessed as reduction in number of intracellular parasites at 1 mM treated 24 hr after parasite infection measured after 24 hr by Giemsa staining based microscopic analysis. It is filed as functional, organism-based.
Data set [9] concerns Toxoplasma gondii. The experiment in a line: Antiparasitic activity against Toxoplasma gondii RH tachyzoites infected African green monkey Vero cells assessed as reduction in number of infected Vero cells at 0.01 mM treated 24 hr after parasite infection measured after 24 hr by Giemsa staining based microscopic analysis. It is filed as functional.

Activity calls are given as the source filed them. The rule behind the calls is not given here.

As usually defined, the inhibition is the change of the read-out against control, counted positive when it falls.

On to `COc1cc(O)cc(OC)c1/C=N/NC(=O)Nc1ccccc1`, for which, in the data set on Toxoplasma gondii [1], the LC50 came out at 500 µM. Further, in data set [2], the CC50 at 24 h is above 1000 µM. The Activity result in the data set on Vero [3] was “Non-toxic”.
For `O=C(N/N=C/c1cc(O)c(O)cc1O)Nc1ccccc1`, in the data set with Toxoplasma gondii [4], the inhibition at 10 µM was 82%. In addition, the results for the Activity result in the data set on Vero [5], in the data set on Vero [3] and with Vero [7] were “Toxic”, “Non-toxic” and “Toxic”, respectively. For the same compound, in the data set on Toxoplasma gondii [1], the LC50 was determined as 6 µM. Further, in [2], the CC50 at 24 h was determined as 300 µM. Further, in the data set on Toxoplasma gondii [6], the inhibition result was “Active”.
`Nc1ccc(S(=O)(=O)Nc2ncccn2)cc1` [SULFADIAZINE]: the LC50 in the data set with Toxoplasma gondii [1] came out at 6000 µM. For the same compound, the CC50 at 24 h in [2] was above 10000 µM.
`Oc1ccc(/C=N/NC(=S)Nc2ccccc2)c(O)c1O`: the results for the Activity result in the data set with Vero [5], in the data set with Vero [3] and with Vero [7] were “Toxic”, “Non-toxic” and “Toxic”, respectively. In addition, the LC50 with Toxoplasma gondii [1] came out at 30 µM. For the same compound, the CC50 at 24 h in data set [2] is 400 µM.
For the compound `Oc1cc(O)c(/C=N/NC(=S)Nc2ccccc2)cc1O`, the Activity result with Vero [5] was “Toxic”; with Vero [3] it was “Non-toxic”; in the data set with Vero [7] it was “Toxic”. Besides, the LC50 in the data set with Toxoplasma gondii [1] was found to be 80 µM. In addition, the CC50 at 24 h in [2] is 300 µM.
Consider `COc1cc(O)cc(OC)c1/C=N/C(=O)NNc1ccccc1`, for which the LC50 with Toxoplasma gondii [1] is 600 µM. Further, the CC50 at 24 h in data set [2] is above 1000 µM. For the same compound, the Activity result with Vero [3] is “Non-toxic”. In the data set with Toxoplasma gondii [8], the inhibition entry was “Active”.
As for `O=C(/N=C/c1cc(O)c(O)cc1O)NNc1ccccc1`, the Activity result is reported as “Toxic” with Vero [5], “Non-toxic” with Vero [3] and “Toxic” in the data set with Vero [7]. Moreover, the LC50 in the data set with Toxoplasma gondii [1] turned out to be 300 µM. In data set [2], the CC50 at 24 h is 400 µM.
In the case of `O=C(/N=C/c1ccc(O)c(O)c1O)NNc1ccccc1`, the results for the Activity result with Vero [5], in the data set on Vero [3] and in the data set with Vero [7] were “Toxic”, “Non-toxic” and “Toxic”, respectively. For the same compound, in the data set with Toxoplasma gondii [1], the LC50 turned out to be 20 µM. In addition, in data set [2], the CC50 at 24 h was determined as 70 µM. Moreover, the inhibition at 10 µM in the data set with Toxoplasma gondii [9] amounted to 50%.
With `COc1cc(O)cc(OC)c1/C=N/NC(=S)Nc1ccccc1`, the Activity in the data set on Vero [5] was 50%; in the data set with Vero [3] it was “Non-toxic”; in the data set on Vero [7], 100%. Also, in the data set on Toxoplasma gondii [1], the LC50 amounted to 200 µM. Besides, the CC50 at 24 h in data set [2] was determined as 700 µM.
The matching figures for `O=C(N/N=C/c1ccc(O)c(O)c1O)Nc1ccccc1`: “Toxic”, “Non-toxic”, “Toxic”, 200 µM and 300 µM.

The values are drawn from ChEMBL document CHEMBL3046478, “Evaluating anti-Toxoplasma gondii activity of new serie of phenylsemicarbazone and phenylthiosemicarbazones in vitro” (Med Chem Res, 2013).
